Results published in article PMC7031302, “Design and synthesis of new energy restriction mimetic agents: Potent anti-tumor activities of hybrid motifs of aminothiazoles and coumarins” (Scientific Reports, 2020).
Like-named read-outs stand apart in the source and are kept apart here.

Legend:
Format in all cases: cell-based, Human
CRC cells = assay: NADPH/NADP+ assay; settings: 48 h treatment
Text: (§1) According to previous studies, ERMAs inhibited glucose utilization in cancer cells[13],[19]. Therefore, we investigated glucose uptake (Fig. 5A) upon treatment with 9b and 9f in HT-29 and HCT116 cells at different concentrations based on the IC50 of each compound. […] This effect is known to result in the accumulation of reactive oxygen species (ROS) and could play a role in glucose deprivation-induced cytotoxicity and oxidative stress in cancer cells. […] The observed increase in ROS levels could lead to oxidative stress and extensive cell death in the absence of NADPH detoxification.
NADPH/NADP+ and ROS concentrations were measured using the NADP/NADPH-Glo Assay Kit (Promega, Madison, WI, USA) and ROS-Glo H2O2 Assay (Promega, Madison, WI, USA), respectively, based on the manufacturer instructions. In NADPH/NADP+ assay, CRC cells were seeded into a 96-well flat-bottomed plate and incubated overnight. On the following day, cells were treated with the testing compound or vehicle for 48 h. At the endpoint of treatment, the media were aspirated and replaced with 60 µl PBS/well, then cells were lysed in 60 µl base solution with 1% dodecyl (trimethyl) ammonium bromide (Sigma-Aldrich-St. Louis, MO, USA). […] Luminescence was measured after 30 minutes using Varioskan Flash multimode reader (Thermo Scientific). […] Luminescence was measured after 20 min incubation at room temperature.

HCT116 [1] = assay: MTT cell viability, HCT116; settings: 72 h, MTT assay, mean ± SD (n = 6), read-out: half-maximal inhibitory concentration (IC50) HCT116
Method: (§2) The potential cytotoxicity of 24 candidate compounds was initially evaluated at a single concentration level (5 μM). Then a full dose-response curve was plotted for each compound against different colorectal cancer cell lines (HCT116 and HT-29) by MTT assay after 72 h treatments. 4-hydroxycoumarin, OSU-CG5, and OSU-CG12 were used as positive controls. […] Compounds 9b, 9c, 9f, 9i, 11b, and 11c were selected for further studies to determine the full dose-response survival curves using different concentrations (0.1–20 µM) against CRC cell lines and normal fibroblast cell line (F180) at different time points (Fig. 2A–2F and supplementary material Page S63 and S64).
(§3) Human colorectal carcinoma cell lines (HCT116) and (HT-29) were obtained from the European Collection of Cell Cultures (ECACC, UK). The cell lines were cultured in Roswell Park Memorial Institute medium (RPMI-1640, Sigma-Aldrich-St. Louis, MO, USA) supplemented with 10% fetal bovine serum (Sigma-Aldrich-St. Louis, MO, USA) and 1% penicillin/streptomycin (Sigma-Aldrich- Louis, MO, USA). F180 cell line (Human Normal Fibroblast), was kindly given by professor Ekkehard Dikomey (University Cancer Center, Hamburg University, Hamburg, Germany) and were cultured in Dulbecco’s Modified Eagle’s medium (DMEM, Sigma-Aldrich-St. Louis, MO, USA) supplemented with 10% fetal bovine serum (Sigma-Aldrich-St. Louis, MO, USA) and 1% penicillin/streptomycin (Sigma-Aldrich- Louis, MO, USA). All cell incubations were done at 37 °C in a humidified atmosphere of 5% CO2.
(§4) Cell viability was assessed using, 3-(4,5-dimethylthiazol-2-yl)-2,5-diphenyltetrazolium bromide (MTT) assay as previously described. In summary, cancer cell lines or F180 were seeded in complete medium at the density of 3 × 10^3/well and 5 × 10^3/well respectively in 96 well flat-bottom plates. After 24 h, cells were incubated with the candidate compounds at the indicated concentration for (24, 48 or 72 h). DMSO was used as vehicle control and 4-Hydroxycoumarin was purchased from (Sigma-Aldrich, St. Louis, MO, USA) and Cisplatin from Hospira UK Ltd. At the end of treatment, the media were aspirated from each well and incubated with 200 µL of MTT tetrazolium dye (Sigma-Aldrich, St. Louis, MO, USA) at a final concentration of 0.5 mg/ml for 2 h at 37 °C. The reduced MTT crystals were solubilized in 200 µl/well of DMSO and the absorbance was measured at 570 nm using a microplate reader (Thermo-Scientific, Vantaa, Finland).

HCT116 [2] = assay: Glucose uptake assay, HCT116; settings: HCT116, 16 h treatment, dose-dependent
Text: as §1
(§5) CRC cells (1 × 10^4) were seeded into a 96-well plate overnight. Cells were treated with test compounds or vehicle (negative control) glucose-free RPMI-1640 medium for 16 h; then, the cells were incubated with 2 mM 2-DG for 10 minutes. Eventually, glucose uptake of cells was measured using Glucose Uptake-Glo Assay (Promega, Madison, WI, USA) according to the manufacturer’s instructions. Luminescence was measured post 2 h of incubation at room temperature using Varioskan Flash multimode reader (Thermo Scientific). Glucose uptake was normalized to the total protein content in the samples using DC protein assay kit (Bio-Rad, Hercules, CA, USA).

[3] = test system: colorectal cancer cell lines, HCT116 and HT-29; assay: MTT cell viability, colorectal cancer cell lines (summary statements); settings: for anticancer activities in initial screening, in words: HT-29 and HCT116 cancer cell lines
Method: as §2, §3, §4

HT-29 = assay: Glucose uptake assay, HT-29; settings: HT-29, 16 h treatment, dose-dependent
Text: as §1, §5

Compound | NADPH/NADP+ ratio (CRC cells) | IC50 (HCT116 [1]) | IC50 (HCT116 [1]; Homo sapiens, HCT-116, 72 h) | glucose uptake (HCT116 [2]) | anticancer activities in initial screening, in words [3] | IC50 ([3]; both cell lines, summary statement) | glucose uptake (HT-29)
Cc1cc(=O)oc2cc(Nc3nc(-c4ccc(Br)cc4)cs3)ccc12 [Compound 9b, 7-(4-(4-Bromophenyl)thiazol-2-ylamino)-4-methyl-2H-chromen-2-one] | significant decrease | 530 ± 77 nM | 380 nM | inhibited significantly | significant anticancer activities | < 600 nM | inhibited significantly
Cc1cc(=O)oc2cc(Nc3nc(-c4cccc([N+](=O)[O-])c4)cs3)ccc12 [Compound 9f, 4-Methyl-7-(4-(3-Nitrophenyl)thiazol-2-ylamino)-2H-chromen-2-one] | significant decrease | 2560 ± 553 nM | 3960 nM | inhibited significantly | significant anticancer activities |  | inhibited significantly
